The METLIN SMRT retention time set (Domingo-Almenara et al. 2019)

experiment: gradient 5% acetonitrile 3 min, to 50% in 2 min, to 85% in 15 min, held 3 min, 100 µL/min; details: column: Zorbax Extend-C18 2.1 x 50 mm; eluents: water / acetonitrile, 0.1% formic acid
Outline: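 Each retention time is based on an adduct peak selected computationally and verified by manual inspection. Measurements used HPLC–quadrupole time-of-flight mass spectrometry in positive and negative ionization mode on mixtures of ~100 pure standards. Chromatography ran on a Zorbax Extend-C18 column (2.1 × 50 mm, 1.8 μm) at 100 μL/min with water and acetonitrile, each containing 0.1% formic acid, and dead and dwell volumes of 40 μL and 900 μL.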

Compound | RP-LC retention time [s]
O=C(Cc1nnc(-c2ccc3ncccc3c2)o1)NCc1ccccc1F | 695
COc1ccc(-n2ncc(C(=O)N3CCN(C(=O)c4ccco4)CC3)c2-n2cccc2)cc1 | 717
Cc1ccc(Nc2c(-c3ccc(N4CCOCC4)cc3)nc3c(C)cccn23)cc1 | 739
Cc1ccc(-n2ccnc(NC(=O)Nc3ccc(F)c(Cl)c3)c2=O)cc1C | 1160
CCN(CC)C(=O)C1CCN(S(=O)(=O)c2ccc3c(c2)NC(=O)CO3)CC1 | 680
COc1ccc(N2CCN(c3ccc(-c4nc(-c5ccccc5)no4)cn3)CC2)cc1 | 1240
COc1ccc(C)c2sc(NS(=O)(=O)c3ccc(C)cc3)nc12 | 870
Cc1nc2c(n1C)CN(C(=O)c1ccc(Cl)s1)CC2 | 574
Cc1ccc(CNC(=O)C2(C)CCCN(C(=O)Nc3ccc(Br)c(C)c3)C2)cc1 (centres undefined) | 1110
O=C1CCCc2cc(S(=O)(=O)Nc3ccc(CN4CCCCC4)cc3)ccc2N1 | 597
CCOc1ccc(CN2C[C@@H](CO)[C@H](c3ccncc3)C2)cc1OCC | 556
COc1cc(-c2nc3ncccn3c2Nc2cccc(C(F)(F)F)c2)ccc1O | 700
Cc1cc(=O)n(CC(=O)NCc2ccc3c(c2)OCO3)c(N2CCCCC2)n1 | 945
O=C(Cn1cccn1)N1CC(F)(F)C[C@H]1c1nc(C2CC2)no1 | 723
COc1ccc2c(c1)C1(CCN(C(=O)COc3ccccc3)C1)C(=O)N2C (centres undefined) | 791
O=S(=O)(c1ccc(-c2noc(-c3cccc(Br)c3)n2)cc1)N1CCCC1 | 1290
CCN(CC)S(=O)(=O)c1ccc(NC(=O)c2ccc3c(=O)n4c(nc3c2)CCCCC4)cc1 | 875
O=C(CN1C(=O)C2CCCCN2c2ccc(S(=O)(=O)N3CCCC3)cc21)NCC1COCCO1 (centres undefined) | 736

Compound | RP-LC retention time [s]
CN(C)C1(CC2CC2)CCN(C(=O)c2cccs2)CC1 | 584
COc1ccc(-c2nnc(-c3ccc(Cl)c(S(=O)(=O)N4CCC(C)CC4)c3)o2)cc1 | 1230
O=C(N[C@H]1C[C@@H]2C[C@H]1CN2C(=O)c1ccc2c(c1)OCO2)c1cccs1 | 871
Cn1cc(C(=O)Nc2ccc(Cl)cc2)c2cccnc21 | 835
Cc1cc(N2CCCC2)nc(N2CCN(C(=O)CC3CCCC3)CC2)n1 | 694
CCOC(=O)c1ccccc1NC(=O)Cn1cccc(-c2nc(-c3ccc(Cl)cc3)no2)c1=O | 1160
CCn1cc2c3c(cccc31)CN(C(=O)Nc1ccc3c(c1)OCCO3)CC2 | 908
O=S(=O)(c1ccc2c(c1)CCC2)N1CCC2(CC1)CC(Cc1nc(-c3cnccn3)no1)CCO2 (centres undefined) | 1010
COc1ccccc1-c1nocc1CCC(=O)O | 686
O=C(c1cn(-c2cc(N3CCCCC3)ncn2)cn1)N1CCc2ccccc2C1 | 973
Cc1nc(-c2cc(S(=O)(=O)N3CCN(c4ccccc4Cl)CC3)c(C)s2)cs1 | 1240
CCCCOc1ccc(C(=O)N2CCCC2c2nc(-c3ccc(OC)cc3)no2)cc1 (centres undefined) | 1180
COc1ccc(-c2nc(-c3ccc4c(c3)oc(=O)n4C(C)C)no2)cc1F | 1160
O=S(=O)(Cc1ccc(Cl)cc1)N1CCC(CN2CCCCCC2)CC1 | 683
Cc1ccc(Cn2c(=O)c3sccc3n(Cc3nc(-c4ccc(OC(C)C)cc4)no3)c2=O)cc1 | 1280
COc1cccc(NC(=O)N2CCC3(CC2)N=C(c2ccc(Cl)cc2)C(=O)N3)c1 | 870
Cn1c(C2CCN(C(=O)Nc3ccc(Cl)cc3)CC2)cc(=O)n2nccc12 | 676
Cc1cc(NC(=O)Cn2ccn3nc(-c4ccccc4)c(CO)c3c2=O)no1 | 714

The remaining lines, values ahead:

RP-LC retention time [s] | Compound
1190 | Cc1ccc(Cl)cc1N1CCN(C(=O)c2[nH]c(C)c(S(=O)(=O)N3CCC(C)CC3)c2C)CC1
975 | Cc1nc(-c2csc(S(=O)(=O)N3CCCC(C(=O)Nc4ccccc4Cl)C3)c2)no1 (centres undefined)
626 | Cc1cccc(CNC(=O)C2CCN(CCc3cn(C)c4ncccc34)CC2)c1
756 | COc1ccc(NC(=O)Cn2nc(C(=O)N3CCCCC3)c3ccccc32)cc1OC
859 | Cc1cc(C)cc(-c2nnc3ccc(Cl)nn23)c1
1040 | COc1ccc(OCc2nnc3sc(-c4ccc5ccccc5n4)nn23)cc1
688 | CC(Cc1ccco1)NC(=O)Cn1c(=O)c(=O)n(C)c2ncccc21 (centres undefined)
655 | CCc1nnc2cc(N3CCN(C(=O)Nc4cccc(F)c4)CC3)cnn12
623 | COCC(=O)N1CCc2c(sc3ncnc(N4CCOCC4)c23)C1
559 | CCN1CCN(c2c(C(=O)c3ccc(C)cc3)cnc3cc(OC)c(OC)cc23)CC1
1080 | CC(C)C(=O)Nc1ccc(C2(C(=O)N(C)Cc3ccccc3)CCCCC2)cc1
670 | Cc1ccc(C(=O)NCC2CN(C(C)C)CC23CCCCC3)s1 (centres undefined)
914 | COc1ccc(NC(=O)C2CCCN(S(=O)(=O)c3cc(-c4noc(C)n4)cs3)C2)cc1 (centres undefined)
773 | O=C(c1cccc(Br)c1)N1CCC2(C1)C(=O)Nc1ccccc12 (centres undefined)
920 | O=C(Cn1ccc2ccc(N3CCOCC3)nc21)NCc1ccc(F)c(Cl)c1
671 | CCOc1cc(=O)n2c(c1C(=O)NC1CCCC1)CCCCC2
673 | Cc1ccccc1-c1noc2ncnc(N3CCN(c4ccccn4)CC3)c12
586 | CCN1C(=O)NC(c2cccc(F)c2)C2=C1CN(CCC(=O)NCCOC)C2=O (centres undefined)
819 | CCc1noc(NC(C)=O)c1-c1ccc(C)c(S(=O)(=O)Nc2cc(OC)ccc2OC)c1
828 | COc1ccc(-n2ccn3cc(-c4cc(OC)ccc4OC)nc3c2=O)cc1
754 | COc1cccc(CNC(=O)C2CCCN(c3nnc4ccc(Cl)cn34)C2)c1OC (centres undefined)
678 | NCC(=O)c1cccc2ccc[n+]([O-])c12
790 | COC1C(=O)N(CC2CC2)C12CCN(S(=O)(=O)c1cccc3cccnc13)CC2 (centres undefined)
634 | COc1cccc(C(O)CN2CCN(c3ccccc3)CC2)c1 (centres undefined)
671 | CCC(=O)N1CCC(Cc2noc(C3CC3)n2)C1 (centres undefined)
719 | COc1ccc(-c2nc3cnccn3c2NCc2ccccc2)cc1
1000 | CC(C)Sc1nnc(N2CCN(c3ccc(F)cc3)CC2)s1

RP-LC retention time [s] | Compound
809 | CCc1c(C(=O)O)nnn1-c1ccc(Cl)c(C)c1
1010 | CCOC(=O)c1noc2ncnc(N3CCc4ccccc4C3)c12
607 | CCn1cnc(S(=O)(=O)N2CCCC(C(=O)Nc3cccc(CN4CCCC4)c3)C2)c1 (centres undefined)
774 | COc1ccc(NC(=O)CSc2nccc(N3CCN(c4cc(C)ccc4C)CC3)n2)cc1OC
728 | CSc1nnc(-c2nn(C)c3c2CN(C(=O)c2c(F)cccc2Cl)CC3)n1C
640 | COC(=O)Cn1c(=O)c(=O)n(CC(=O)OC)c2ccccc21
752 | O=C(Cc1ccccc1Br)NC1CCN(c2cc(-c3ccc(F)cc3)[nH]n2)C1 (centres undefined)
696 | COc1ccccc1OCCN1C(=O)CCc2c(C)ncnc21
593 | Cc1cc(N2CCN(C(=O)Cc3cccc(F)c3)CC2)nc2nncn12
525 | CN1C(=O)[C@H]2CN(Cc3ccc(N(C)C)cc3)C[C@H]2C1=O
1030 | CCOc1cc(C(=O)Nc2nc(-c3ccc4c(c3)NC(=O)CO4)cs2)cc(OCC)c1OCC
784 | O=C(c1ccc2ccccc2n1)N1CCOc2ccc(N3CCOCC3)cc2C1
678 | CN(C)CCNc1ccc(-c2nc(-c3cccc(F)c3)no2)cn1
905 | COC(=O)c1cccc(Nc2c(-c3cccc(Cl)c3)nc3cnccn23)c1
1020 | CC(C)c1noc(-c2cc(=O)n(CC(=O)Nc3ccc(F)cc3F)c3ccccc23)n1
757 | O=C(NCCc1csc(C2CCCN(C(=O)CC3CCCC3)C2)n1)C1CC1 (centres undefined)
698 | COc1cccc(NC(=O)NCCn2c(C(F)(F)F)nc3cccnc32)c1
671 | COc1ccc(-c2csc3nc[nH]c(=O)c23)cc1
766 | COCCN1C(=O)CCc2cc(NC(=O)Cc3ccccc3C)ccc21
937 | COc1cc(Cc2nc(-c3cccc(-c4ccn[nH]4)c3)no2)cc(OC)c1
588 | CCc1ccc(CNC(=O)C2CCN(c3cncnc3N3CCN(C)CC3)CC2)cc1
854 | O=S(=O)(c1ccc(Br)s1)N1CCN(S(=O)(=O)C2CC2)CC1
1020 | COc1ccc(-c2cc3c(=O)n(Cc4nc(-c5ccc(OC)cc5OC)oc4C)ccn3n2)cc1
1080 | O=c1ccn(-c2ccc(Cl)cc2)nc1-c1nc(-c2ccc(F)c(Br)c2)no1
721 | Cc1cc(C(=O)N2CC(C(=O)Nc3cccc(-c4csc(C)n4)c3)C2)no1
1040 | Cc1ccc2c(c1)N(S(C)(=O)=O)CCC(C(=O)Nc1ccccc1Br)O2 (centres undefined)
